How the values were obtained:
[1] = detection of radiolabelled compound in saliva; type: in vivo
[2] = stability of the anhydrous crystalline forms; type: physicochemical; conditions: anhydrous crystalline form, suitability for commercial pharmaceutical formulations
[3] = test system: mice; assay: apomorphine-induced climbing behavior in mice; type: in vivo
Source text: (§1) The Form I olanzapine prepared by the process of this invention has useful central nervous system activity. […] For example, the anhydrous Form I compound has been assessed in a number of standard behavior tests predictive of antipsychotic activity. The claimed compound antagonised apomorphine-induced climbing behavior and hypothermia in mice. See Moore, N. A. et al Psychopharmacology 94 (2), 263-266 (1988).

[4] = test system: mice; assay: apomorphine-induced hypothermia in mice; type: in vivo
Source text: as §1

[5] = test system: rats; assay: conditioned avoidance response in rats; type: in vivo
[6] = test system: rats; assay: induction of catalepsy; type: in vivo; conditions: compared with doses required to block conditioned avoidance response
[7] = test system: 5-HT2B receptor; assay: 5-HT2B receptor activity

Compound	detection in saliva [1]	stability of the polymorph [2]	antagonism of apomorphine-induced climbing behavior [3]	antagonism of apomorphine-induced hypothermia [4]	inhibition of conditioned avoidance response [5]	induction of catalepsy [6]	5-HT2B receptor activity [7]
Cc1cc2c(s1)Nc1ccccc1N=C2N1CCN(C)CC1 [2-methyl-4-(4-methyl-1-piperazinyl)-10H-thieno-[2,3-b][1,5]benzodiazepine]	can be detected in the saliva						
Cc1cc2c(s1)Nc1ccccc1N=C2N1CCN(C)CC1 [anhydrous Form I olanzapine, 2-methyl-4-(4-methyl-1-piperazinyl)-10H-thieno[2,3-b][1,5]benzodiazepine]		stable	antagonised	antagonised	inhibits	only at higher doses	5-HT2B receptor activity
Cc1cc2c(s1)Nc1ccccc1N=C2N1CCN(C)CC1 [anhydrous Form II olanzapine, 2-methyl-4-(4-methyl-1-piperazinyl)-10H-thieno[2,3-b][1,5]benzodiazepine]		metastable					

From US5703232A, “Process and solvate of 2-methyl-thieno-benzodiazepine” (Eli Lilly and Company, priority 1996, dated 1997)
